Laboratory results from ChEMBL document CHEMBL2424548, “Substrate-based peptidomimetic inhibitors of the Murray Valley encephalitis virus NS2B/NS3 serine protease: a P1-P4 SAR study” (Eur J Med Chem, 2013).
Non-standard residues stand in square brackets, D forms with d. Residues, ends and D or L forms follow the SMILES beside them. *: point of attachment. hArg = N=C(N)NCCCC[C@H](N)C(=O)O; Agmatine = N=C(N)NCCCCN*; Nle = CCCC[C@H](N)C(=O)O

Legend:
[1] = Inhibition of Murray Valley encephalitis virus NS2B/NS3 protease using Pyr-RTKR-AMC as substrate after 1 hr by fluorescence assay
Prothrombin = Prothrombin (Homo sapiens, UniProt P00734); assay: Inhibition of human thrombin after 1 hr by fluorescence assay
[2] = Competitive inhibition of Murray Valley encephalitis virus NS2B/NS3 protease using Pyr-RTKR-AMC as substrate after 1 hr by Lineweaver-Burk plot analysis
[3] = Chemical stability of the compound at 100 uM after 2 hrs in presence of MVEV NS2B/NS3 protease; type: physicochemical

Structure (SMILES) | IC50 [1] [µM] | other results
N=C(N)NCCCCNC(=O)[C@H](CCCCN)NC(=O)[C@H](CCCCN)NC(=O)CCc1ccccc1 | 30.7 | 
Cc1ccccc1CC(=O)N[C@@H](CCCCN)C(=O)N[C@@H](CCCCN)C(=O)NCCCCNC(=N)N | 60.5 | 
CCCC[C@H](NC(C)=O)C(=O)N[C@@H](CCCCN)C(=O)NCCCCNC(=N)N (Ac-[Nle]-Lys-Agmatine) | 45.2 | 
N=C(N)NCCCCNC(=O)[C@H](CCCCN)NC(=O)[C@H](CCCCN)NC(=O)Cc1ccccc1 | 16.3 | 
CC(=O)N[C@@H](CCCCN)C(=O)N[C@@H](CCCCN)C(=O)NCCCNC(=N)N | > 100 | 
N=C(N)NCCCCNC(=O)[C@H](CCCCN)NC(=O)[C@H](CCCCN)NC(=O)c1cccc2ccccc12 | 28.3 | 
N=C(N)NCCCCNC(=O)[C@H](CCCCN)NC(=O)[C@H](CCCCN)NC(=O)Cc1cccc(-c2ccccc2)c1 | 9.1 | 
CC(=O)N[C@@H](CCCCN)C(=O)N[C@@H](CCCCN)C(=O)NCCCCN | > 100 | 
N=C(N)NCCCCNC(=O)[C@H](CCCCN)NC(=O)[C@H](CCCCN)NC(=O)Cc1ccc(Cl)cc1 | 14.1 | 
CC(=O)N[C@@H](CCCCN)C(=O)N[C@@H](CCCCN)C(=O)NC/C=C\CNC(=N)N | > 100 | 
CC(=O)N[C@@H](CCCCN)C(=O)N[C@@H](CCCCNC(=N)N)C(=O)NCCCCNC(=N)N (Ac-Lys-[hArg]-Agmatine) | 79.2 | 
CCC(=O)N[C@@H](CCCCN)C(=O)N[C@@H](CCCCN)C(=O)NCCCCNC(=N)N | 49.1 | 
CCCC(=O)N[C@@H](CCCCN)C(=O)N[C@@H](CCCCN)C(=O)NCCCCNC(=N)N | 50.9 | 
CC(=O)N[C@@H](CCCCN)C(=O)N[C@@H](CCCCN)C(=O)NCCCCCNC(=N)N | 75.7 | 
Cc1cccc(CC(=O)N[C@@H](CCCCN)C(=O)N[C@@H](CCCCN)C(=O)NCCCCNC(=N)N)c1 | 15.7 | 
CC(=O)N[C@@H](CCCCNC(=N)N)C(=O)N[C@@H](CCCCN)C(=O)NCCCCNC(=N)N (Ac-[hArg]-Lys-Agmatine) | 31.4 | 
CCCCNC(=O)[C@H](CCCCN)NC(=O)[C@H](CCCCN)NC(C)=O | > 100 | 
N=C(N)NCCCCNC(=O)[C@H](CCCCN)NC(=O)[C@@H](N)CCCCN | > 100 | 
CC(=O)N[C@@H](CCCCN)C(=O)N[C@@H](CCCCN)C(=O)NCC1CCN(C(=N)N)CC1 | 9.2 | 

Structure (SMILES) | IC50 [1] [µM] | other results
CC(C)(C)C(=O)N[C@@H](CCCCN)C(=O)N[C@@H](CCCCN)C(=O)NCCCCNC(=N)N | > 100 | 
N=C(N)NCCCCNC(=O)[C@H](CCCCN)NC(=O)[C@H](CCCCN)NC(=O)Cc1ccccc1Cl | 54 | 
N=C(N)N1CCC(CNC(=O)[C@H](CCCCN)NC(=O)[C@H](CCCCN)NC(=O)Cc2cccc(-c3ccccc3)c2)CC1 | 4.9 | IC50 (Prothrombin): > 100 µM; Ki [2]: 2.5 µM; Stability [3]: Stable
N=C(N)NCCCCNC(=O)[C@H](CCCCN)NC(=O)[C@H](CCCCN)NC(=O)Cc1cccc(Cl)c1 | 53.9 | 
CC(=O)N[C@@H](CCCCN)C(=O)N[C@@H](CCCCN)C(=O)NCCCCCN | > 100 | 
CC(=O)N[C@@H](CCCCN)C(=O)N[C@@H](CCCCN)C(=O)NCCCCNC(N)=O | > 100 | 
Cc1ccc(CC(=O)N[C@@H](CCCCN)C(=O)N[C@@H](CCCCN)C(=O)NCCCCNC(=N)N)cc1 | 15.2 | 
CCCC[C@H](NC(=O)[C@H](CCCCN)NC(C)=O)C(=O)NCCCCNC(=N)N (Ac-Lys-[Nle]-Agmatine) | > 100 | 
N=C(N)NCCCCNC(=O)[C@H](CCCCN)NC(=O)[C@H](CCCCN)NC(=O)c1ccccc1 | 32.3 | 
CC(=O)N[C@@H](CCCCN)C(=O)N[C@@H](CCCCN)C(=O)NCC#CCNC(=N)N | 12.7 | 
CC(=O)N[C@@H](CCCCN)C(=O)N[C@@H](CCCCN)C(=O)NCCCCNC(=N)N | 16.8 | 
CC(C)CC(=O)N[C@@H](CCCCN)C(=O)N[C@@H](CCCCN)C(=O)NCCCCNC(=N)N | 69.3 | 
CC(=O)N[C@@H](CCCCN)C(=O)N[C@@H](CCCCN)C(=O)NCCCCCCN | > 100 | 
CC(=O)N[C@@H](CCCCN)C(=O)N[C@@H](CCCCN)C(=O)NC/C=C/CNC(=N)N | 58.3 | 
CC(=O)N[C@@H](CCCCN)C(=O)N[C@@H](CCCCN)C(=O)NN | > 100 | 
N=C(N)NCCCCNC(=O)[C@H](CCCCN)NC(=O)[C@H](CCCCN)NC(=O)Cc1ccc(-c2ccccc2)cc1 | 18.4 | 
CC(=O)N[C@@H](CCCCN)C(=O)N[C@@H](CCCCN)C(=O)N[C@H]1CC[C@@H](NC(=N)N)CC1 | > 100 | 
CC(C)C(=O)N[C@@H](CCCCN)C(=O)N[C@@H](CCCCN)C(=O)NCCCCNC(=N)N | 81.7 | 
N=C(N)NCCCCNC(=O)[C@H](CCCCN)NC(=O)[C@H](CCCCN)NC(=O)c1ccc2ccccc2c1 | 24 | 
